Reference: patent USRE47193E1, “Selectively substituted quinoline compounds” (EISAI R&D MANAGEMENT CO., LTD., priority 2013, dated 2019)
“Also recorded” adds a separate entry of the source.

Experiments:
[1] = system: Pristane DBA/1 lupus disease model; test: Pristane: DBA/1 lupus disease model; format: in vivo, mouse; conditions: for auto-antibody specificities (titers): Pristane model, particularly robust impact on anti-RiboP titers
Description: (§1) FIG. 3A through FIG. 3E show results of testing compound ER-899742 in the Pristane: DBA/1 strain lupus disease model. Figure Legend: Female DBA/1 mice at 9 weeks of age were given an intraperitoneal injection of 0.5 ml pristane or PBS. At 9 weeks post-pristane animals were bled for auto-antibody titers. Once-a-day oral dosing with Vehicle (Veh; 0.5% methyl-cellulose) or 33 mg/kg, 100 mg/kg, or 300 mg/kg of ER-899742 was begun 10 weeks after pristane injection and continued for 13 weeks of treatment. Mice were euthanized after 13 weeks of compound treatment, and anti-dsDNA (FIG. 3A), anti-Sm/nRNP (FIG. 3B), anti-histone (FIG. 3C) and anti-RiboP (FIG. 3D) titers were measured in blood plasma samples by ELISA (statistical significance of treatment versus vehicle determined by ANOVA with Dunnett's post-test). (FIG. 3E) The expression of IFN-regulated genes in whole blood was measured by a qPCR panel after 13 weeks of treatment with 300 mg/kg of ER-899742, and an IFN gene signature score was calculated (see Pharmacology Materials and Methods section for details regarding IFN score calculation).
FIG. 5A through FIG. 5D show results of testing ER-899464 in the Pristane disease model in the same experiment as that shown in FIG. 3A through FIG. 3E. Figure Legend: Mice were euthanized after 13 weeks of compound treatment, and anti-dsDNA (FIG. 5A), anti-Sm/nRNP (FIG. 5B), anti-histone (FIG. 5C), and anti-RiboP (FIG. 5D) titers were measured in blood plasma samples by ELISA (statistical significance of treatment versus vehicle determined by ANOVA with Dunnett's post-test).
(§2) FIG. 7A through FIG. 7G show the effect of dosing with ER-899742 in Pristane-induced disease in DBA/1J mice. Figure Legend: Female DBA/1 mice at 9 weeks of age were given an intraperitoneal injection of 0.5 ml pristane or PBS. At 10 weeks post-pristane animals were bled for autoantibody titers. Once-a-day oral dosing with Vehicle (Veh; 0.5% methyl-cellulose) or 33 mg/kg, or 300 mg/kg of ER-899742 was begun 11 weeks after pristane injection and continued for 14 weeks of treatment. Mice were euthanized after 14 weeks of compound treatment, and anti-dsDNA (FIG. 7A), anti-RiboP (FIG. 7B), anti-Sm/nRNP (FIG. 7C), and anti-histone (FIG. 7D) titers were measured in blood plasma samples by ELISA (statistical significance of treatment versus vehicle determined by ANOVA with Dunnett's post-test). The same plasma was used to measure total IgG titers by ELISA at the end of dosing (FIG. 7E). […] Pristane-treated mice in this experiment developed arthritis, with swollen joints in the rear paws. Arthritis scores were assigned according to severity, each paw was scored on a scale of 0-4 based on signs of swelling and inflammation. Scores were summed for the two hind paws assessed on each animal, and graphed in FIG. 7F with statistical assessment as for ELISA titers above.
FIG. 8 contains the result of treating for a month with ER-899742 in Pristane-induced disease in DBA/1J mice with advanced disease, after development of high levels of autoantibody. Figure Legend: DBA/1J mice were injected i.p. with pristane at 10 weeks of age. Three months later anti-RiboP and anti-dsDNA titers were taken, and animals randomized into groups with matching mean titers. Groups were sacrificed after one, two or four weeks of oral dosing with ER-899742, and RiboP titers measured in serum.
Mouse Lupus Disease Models.
Mouse lupus disease model strains. Female NZBWF1/J mice were purchased from Jackson Labs (Bar Harbor, Me.), both of which manifest with spontaneous lupus disease. Female DBA/1 mice were purchased from Harlan Laboratories (Indianapolis, Ind.) and at the indicated ages given an intraperitoneal injection of 0.5 ml pristane (2,6,10,14-Tetramethylpentadecane; Sigma, St. Louis, Mo.) to chemically induce lupus disease or of 0.5 ml PBS to generate age-matched, non-diseased control mice.
Assessment of auto-antibody titers by ELISA. […]

IFN-regulated genes = test: Interferon gene expression in whole blood (qPCR TLDA panel, IFN score), Pristane model; format: in vivo, mouse; conditions: for disease up-regulated IFN-regulated genes reduced by treatment vs. vehicle: 13 weeks of treatment, Student's t-test
Description: as §1, §2
Assessment of interferon gene expression in whole blood. The expression of IFN-regulated genes in whole blood was measured by qPCR. Briefly, mice were euthanized, blood was collected via the vena cava, and 100 ul was preserved in tubes containing RNAlater (Ambion, Austin Tex.). Total RNA was isolated using the Mouse RiboPure Blood RNA Isolation Kit (Ambion). RNA concentrations were determined using a NanoDrop ND-1000 spectrophotometer (Thermo Scientific, Waltham Mass.). First strand cDNA was synthesized from 100 ng total RNA using SuperScript® VILO™ Master Mix (Life Technologies, Grand Island, N.Y.). After reverse transcription, cDNA was diluted with nuclease-free water and mixed with TaqMan® Fast Advanced Master Mix (Applied Biosystems). The mixture was then applied to a custom TaqMan® Low Density Array (TLDA) manufactured by Applied Biosystems, and qPCR was performed on the ABI 7900HT Fast Real-time PCR System (Applied Biosystems). Raw data was collected using RQ Manager 1.2.1 (Applied Biosystems) and analyzed using GeneData Analyst 2.2 software (GeneData).
The TLDA panel contained as many as 45 target genes chosen from Table 9 below, and 3 housekeeping genes for normalization. The housekeeping gene Hprt1 was chosen for normalization based on coefficient-of-variation. Relative quantities were determined for the target genes and used to calculate a fold change for each diseased mouse relative to the non-diseased control group receiving intraperitoneal PBS injection only. […]

[2] = 33 or 300 mg/kg QD oral, 14 weeks of treatment

| Compound | auto-antibody specificities (titers) [1] | disease up-regulated IFN-regulated genes reduced by treatment vs. vehicle (IFN-regulated genes) | autoantibody against dsDNA and RiboP [1, 2] | total IgG titers [1, 2] | arthritis scores (hind paws) ([1]; Pristane-treated DBA/1 mice, 33 or 300 mg/kg, 14 weeks, hydrochloride) | reversal of anti-RiboP or DNA titers ([1]; advanced disease, after 28 days of oral dosing) | interferon score, treated vs vehicle-treated (IFN-regulated genes; 13 weeks of treatment with 300 mg/kg) | interferon score, treated vs vehicle-treated (IFN-regulated genes; 14 weeks of treatment experiment (FIG. 7)) | disease-related interferon-modulated genes downregulated (IFN-regulated genes; 14 weeks of treatment experiment (FIG. 7G)) | expression of IFN-modulated genes in whole blood (IFN-regulated genes; Pristane model, summary of key findings) |
| --- | --- | --- | --- | --- | --- | --- | --- | --- | --- | --- |
| C[C@@H]1CN(c2ccc(C#N)c3ncccc23)C[C@H](C(=O)NC2CCN(C)CC2)O1 [ER-899464, (2R,6R)-4-(8-cyanoquinolin-5-yl)-6-methyl-N-(1-methylpiperidin-4-yl)morpholine-2-carboxamide] | suppressed various auto-antibody specificities | none of the disease up-regulated genes shown in FIG. 3B were affected | – | – | – | – | – | – | – | – |
| C[C@@H]1CN(c2ccc(C#N)c3ncccc23)C[C@H](C(=O)N[C@H]2CNC[C@H]2F)O1.Cl [ER-899742, (2R,6R)-4-(8-cyanoquinolin-5-yl)-N-[(3S,4R)-4-fluoropyrrolidin-3-yl]-6-methylmorpholine-2-carboxamide hydrochloride] | suppressed various auto-antibody specificities | six genes were significantly reduced | Control of autoantibody against dsDNA and RiboP was seen | minimal changes in overall IgG level | Dose-dependent statistically significant suppression was observed; also recorded: Control of arthritis | no statistically significant reversal | no significant difference | no significant difference | downregulation of five out of 28 disease-related interferon-modulated genes | Decreased expression of some IFN-modulated genes |
